Data on 34 molecules can be found in patent US20170158671A1, “PYRIMIDINE COMPOSITIONS, ULTRA PURE COMPOSITIONS AND SALTS THEREOF, METHODS OF MAKING THE SAME, AND METHODS OF USING THE SAME FOR TREATING HISTAMINE H4 RECEPTOR (H4) MEDIATED DISEASES AND CONDITIONS” (Ziarco Pharma Ltd., priority 2015, published 2017).

Data set [1] can be described thus: Salt screen: HT-XRPD after accelerated aging conditions. Type of data set: physicochemical. The following applies: solid form by HT-XRPD after 40° C., 75% RH for two days, code+number = crystalline salt polymorph, 0 = crystalline counter ion itself. How it is done:
XRPD patterns were obtained using the Crystallics T2 high-throughput XRPD set-up. The plates were mounted on a Bruker General Area Detector Diffraction System (GADDS) equipped with a VÅNTEC-500 gas area detector corrected for intensity and geometric variations. The calibration of the measurement accuracy (peaks position) was performed using NIST SRM1976 standard (Corundum).
Data collection was carried out at room temperature using monochromatic CuKα radiation in the 2θ region between 1.5° and 41.5°, which is the most distinctive part of the XRPD pattern. The diffraction pattern of each well was collected in two 2θ ranges (1.5°≦2θ≦21.5° for the first frame, and 19.5°≦2θ≦41.5° for the second) with an exposure time of 90 s for each frame. No background subtraction or curve smoothing was applied to the XRPD patterns.
Approximately 175 mg of N^4-(cyclopropylmethyl)-6-[(3R)-3-(methylamino)pyrrolidin-1-yl]pyrimidine-2,4-diamine in 1-Butanol and Dichloromethane were combined with a slight molar excess of either solid or liquid counter ion. Samples were incubated at RT. After 5 days the solids were collected, dried under vacuum and analyzed by HT-XRPD (XRPD 1).
Subsequently, the solids were exposed to accelerated aging conditions (40° C., 75% RH) for two days and re-analyzed by HT-XRPD (XRPD 2). Crystalline salts (polymorphs) are indicated with the abbreviated counter ion code and a number (1, 2, etc.). The number zero (0) indicates the crystalline counter ion itself.

A short description of data set [2]: Dynamic vapor sorption (DVS) analysis. The format is physicochemical. The following applies: 25° C. How it is done: Moisture sorption isotherms were collected on a DVS-1 system from Surface Measurement Systems (London, UK). Typical sample size is between 5 and 10 mg of solid material. The relative humidity was cycled between 40% to 0% (desorption), up to 95% (sorption), back to 0% RH (desorption) and up to 95% RH (sorption) in steps of 10% at a constant temperature of 25° C. with an initial stabilizing step at 40% RH for 6 hours.
(FIG. 9) The relative humidity (RH) was cycled between 40% to 0% (desorption), up to 95% (sorption) in steps of 10%. During the desorption, the dehydration step occurs when the RH goes below 10% RH. Water uptake is observed in between 0-20% RH (1.9% mass uptake) and 20-30% (total mass uptake 6.9%).

Data set [3] has as its system adult subjects with moderate to severe atopic dermatitis. Nature of the data set: Phase 2a study in moderate to severe atopic dermatitis. The format is in vivo, human. How it is done:
Following the phase 1 trials, a phase 2a trial was conducted to evaluate the efficacy of 8 weeks of treatment with 30 mg ZPL-389 administered once daily in adult subject with moderate to severe atopic dermatitis. The study was also designed to assess the safety and tolerability of ZPL-389 in adult subjects with moderate to severe atopic dermatitis.
This study was a randomized, double blind, placebo controlled, parallel group study of subjects having a pruritus Numerical Rating Scale (NRS) of ≧5 (0-10 scale), an Investigator's Global Assessment (IGA) ≧3 (0-3 scale), and moderate-severe AD Eczema Area and Severity Index (EASI) ≧12 and ≦48 (0-72 scale). In addition, subjective patient reported outcome instruments include: Ziarco Itch Diary (Electronic) Pruritus; 5D Pruritus Scale; Dermatology Life Quality Index (DLQI); and Patient Global Impression of Change (PGIG).
Each subject (aged 18-65 years) had one or more screening visits to confirm suitability to enter the study. 98 subjects with moderate to severe atopic dermatitis were randomized 2:1 to receive orally either 30 mg ZPL-389 or placebo once daily for eight weeks (56 days).
Efficacy endpoints for the trial include the following: • change from baseline in NRS for pruritus (worst itch) over 24 hours; • change from baseline in daytime NRS for pruritus (worst itch); • change from baseline in night time NRS for pruritus (worst itch); • change from baseline in NRS for sleep disturbance; • change from baseline in duration of itching; • change from baseline in verbal rating score for pruritus; • change from baseline in EASI score; • change from baseline in SCORAD score; • IGA score; • amount of rescue medication use; and/or • PGIC.

The next data set concerns mild asthmatics. The note with it: 36 mg in two single doses given 12 hours apart, oral; cited from earlier work.
A short description of data set [4]: Phase 1 trials, single and multiple ascending doses. The format is in vivo, human. How it is done:
In phase 1 trials, 62 subjects were treated with ZPL-389.

Data set [5] in a line: Salt screen: HT-XRPD after accelerated aging conditions. Type of data set: physicochemical. The following applies: 14 counter ions tested; only hydrochloric acid gave such a salt.
Where [6] appears, read: 30 mg orally once daily vs placebo.
Setting [7] is: 30 mg orally once daily, 8 weeks.

With `Br` [Hydrobromic acid], the “XRPD 2” value in data set [1] (1-Butanol) and in data set [1] (Dichloromethane) was “Amorphous” each time.
Take `CC(=O)Nc1ccc(C(=O)O)cc1` [4-acetamido-Benzoic acid]: the “XRPD 2” value in data set [1] (1-Butanol) and in data set [1] (Dichloromethane) was “ABen1 + ABen0” each time.
As to `Cl` [Hydrochloric acid], the “XRPD 2” value in data set [1] (1-Butanol) and in data set [1] (Dichloromethane) was “Amorphous” throughout.
As for (−)-L-Malic acid, the “XRPD 2” value in data set [1] (1-Butanol) and in data set [1] (Dichloromethane) was “Amorphous” in each case.
Take `O=C(O)/C=C/C(=O)O` [Fumaric acid]: the “XRPD 2” value in data set [1] (1-Butanol) is reported as “Amorphous”; in data set [1] (Dichloromethane) it was “Fum0 + Fum3”.
The corresponding values for `O=C(O)C(=O)O` [Oxalic acid] are “Oxa3” and “Oxa3”.
On to `O=S(=O)(O)CCS(=O)(=O)O` [Ethane-1,2-disulfonic acid], for which the “XRPD 2” value in data set [1] (1-Butanol) is reported as “Eds1 + Eds2”; in data set [1] (Dichloromethane) it was “Eds1”.
`CCS(=O)(=O)O` [Ethanesulfonic acid]: the “XRPD 2” value in data set [1] (1-Butanol) and in data set [1] (Dichloromethane) was “Amorphous” throughout.
Regarding `O=C(O)/C=C\C(=O)O` [Maleic acid], the “XRPD 2” value in data set [1] (1-Butanol) and in data set [1] (Dichloromethane) was “Amorphous” each time.
`CN[C@@H]1CCN(c2cc(NCC3CC3)nc(N)n2)C1.O.O.O=C(O)C(O)C(O)C(=O)O` [Example 4, N^4-(cyclopropylmethyl)-6-[(3R)-3-(methylamino)pyrrolidin-1-yl]pyrimidine-2,4-diamine tartrate dihydrate]: the “RH at which the dehydration step occurs during desorption” value in data set [2] (DVS desorption) is listed as “below 10 % RH”. For the same molecule, in data set [2] (DVS sorption), the “Water uptake (mass uptake) between 0-20% RH” value is recorded as 1.9% and the “total mass uptake at 20-30% RH” value stood at 6.9%. Also, in data set [2] (DVS), the “weight between 30-90% RH” value was “remains stable”.
Regarding `CC(O)C(=O)O` (stereo not drawn) [Lactic acid], the “XRPD 2” value in data set [1] (1-Butanol) and in data set [1] (Dichloromethane) was “Amorphous” throughout.
For the molecule `O=S(=O)(O)O` [Sulfuric acid], the “XRPD 2” value in data set [1] (1-Butanol) and in data set [1] (Dichloromethane) was “Amorphous” each time.
Turning to `O=C(O)c1ccccc1O` [Salicylic acid], the “XRPD 2” value in data set [1] (1-Butanol) is “Sal1 plus”; in data set [1] (Dichloromethane) it was “Amorphous”.
The corresponding values for `N[C@@H](CCC(=O)O)C(=O)O` [Glutamic acid] are “Gltm0” and “Amorphous”.
With `O=C(O)c1cc(O)ccc1O` [Gentisic acid], the “XRPD 2” value in data set [1] (1-Butanol) and in data set [1] (Dichloromethane) was “Gen2” in each case.
On to `CN[C@@H]1CCN(c2cc(NCC3CC3)nc(N)n2)C1` [ZPL-389, N^4-(cyclopropylmethyl)-6-[(3R)-3-(methylamino)pyrrolidin-1-yl]pyrimidine-2,4-diamine], for which, in data set [3] (setting [6]), the “IGA remission odds ratio” value is given as 2.71 and the “IGA response odds ratio” value was 2.51. In data set [3] (setting [7]), the “Treatment Emergent Adverse Events (TEAE) between ZPL-389 and placebo” value is listed as “no differences”; the “inflammation compared to placebo (EASI, SCORAD, BSA)” value was “clinically and statistically significant decrease”; the “subjects with clear or almost clear skin” value amounted to 19%. Besides, the “tolerability / safety profile” value in data set [3] (30 mg orally once daily, 8 weeks, comparable to placebo) is given as “well tolerated”. Also, the rescue medication use result in data set [3] (30 mg orally once daily, 8 weeks, vs placebo) was “lower”. For the same molecule, in data set [3] (30 mg orally once daily, week 8, placebo 25%), the “IGA reduced by” value came out at 36%. In addition, the “SCORAD reduced by” value in data set [3] (30 mg orally once daily, week 8, placebo 26%, p=0.004) stood at 41%. Further, the “EASI reduced by” value in data set [3] (30 mg orally once daily, week 8, placebo 27%, p=0.01) came out at 50%. For the same molecule, in data set [3] (30 mg orally once daily, week 8, placebo −12%, p=0.044), the “BSA (Body Surface Area) affected by inflammation change from baseline” value was −18%. Further, the pruritus result in data set [3] (30 mg orally once daily, statistically significant compared to baseline) is “markedly reduced”. Moreover, the “efficacy in mild asthma” value in the data set with mild asthmatics is given as “no efficacy was observed”. In addition, in data set [4] (phase 1 trials), the absorption entry is listed as “rapidly absorbed” and the “pharmacokinetics (dose proportionality)” value is listed as “dose-proportional”. Further, the “majority of observed adverse events” value in data set [4] (single ascending doses 0.01-48 mg, multiple ascending doses 5, 15, 50 mg once daily for 14 days) was “mild, transient, and non-dose related”. In data set [4] (single ascending doses 0.01-48 mg, multiple ascending doses 5, 15, 50 mg once daily for 14 days, 62 subjects), the tolerability entry is given as “safely tolerated”.
With `O=C[C@H](O)[C@@H](O)[C@H](O)[C@H](O)C(=O)O` [D-Glucuronic acid], the “XRPD 2” value in data set [1] (1-Butanol) and in data set [1] (Dichloromethane) was “Amorphous” throughout.
In the case of `CCCCCCCCCCCCCCCCCC(=O)O` [Stearic acid], the “XRPD 2” value in data set [1] (1-Butanol) and in data set [1] (Dichloromethane) was “Ste0 + Ste1” throughout.
For the molecule `Cc1ccc(S(=O)(=O)O)cc1` [p-Toluenesulfonic acid], the “XRPD 2” value in data set [1] (1-Butanol) and in data set [1] (Dichloromethane) was “Amorphous” in each case.
In the case of `N[C@@H](CC(=O)O)C(=O)O` [L-Aspartic acid], the “XRPD 2” value is listed as “Asp0” in data set [1] (1-Butanol) and “Amorphous” in data set [1] (Dichloromethane).
On the same counts, the results for `CS(=O)(=O)O` [Methanesulfonic acid] are “Amorphous” and “Amorphous”.
On the same counts, the results for `O=C(O)[C@H](O)[C@@H](O)[C@H](O)[C@H](O)CO` [Gluconic acid] are “Amorphous” and “Amorphous”.
Regarding `O=C(O)[C@H](O)[C@@H](O)C(=O)O` [(+)-L-Tartaric acid], the “XRPD 2” value in data set [1] (1-Butanol) and in data set [1] (Dichloromethane) was “Amorphous” each time.
For the molecule `O=S(=O)(O)c1ccccc1` [Benzenesulfonic acid], the “XRPD 2” value in data set [1] (1-Butanol) and in data set [1] (Dichloromethane) was “Amorphous” in each case.
Consider `O=C(O)CCCC(=O)O` [Glutaric acid], for which the “XRPD 2” value in data set [1] (1-Butanol) and in data set [1] (Dichloromethane) was “Glut1” each time.
`O=C(O)CNC(=O)c1ccccc1` [Hippuric acid]: the “XRPD 2” value in data set [1] (1-Butanol) and in data set [1] (Dichloromethane) was “Amorphous” in each case.
On to `O=C(O)c1ccccc1` [Benzoic acid], for which the “XRPD 2” value in data set [1] (1-Butanol) and in data set [1] (Dichloromethane) was “Ben1 + Ben2 plus” each time.
With `O=C(O)CC(O)(CC(=O)O)C(=O)O` [Citric acid], the “XRPD 2” value in data set [1] (1-Butanol) and in data set [1] (Dichloromethane) was “Amorphous” in each case.
For `O=C1O[C@H]([C@@H](O)CO)C(O)=C1O` [L-Ascorbic acid], the “XRPD 2” value in data set [1] (1-Butanol) and in data set [1] (Dichloromethane) was “Amorphous” each time.
`O=P(O)(O)O` [Phosphoric acid]: the entries for the “XRPD 2” value in data set [1] (1-Butanol) and in data set [1] (Dichloromethane) were “Pho2 plus” and “Pho3”, respectively.
In the case of `CN[C@@H]1CCN(c2cc(NCC3CC3)nc(N)n2)C1.Cl.Cl.O` [Example 8, N^4-(cyclopropylmethyl)-6-[(3R)-3-(methylamino)pyrrolidin-1-yl]pyrimidine-2,4-diamine di-hydrochloride hydrate], the “stability of two to one stoichiometric salt” value in data set [5] is “stable”.
As for `CC(=O)O` [Acetic acid], the “XRPD 2” value in data set [1] (1-Butanol) and in data set [1] (Dichloromethane) was “Amorphous” throughout.
Consider `O=C(O)C(O)c1ccccc1` (racemic) [DL-Mandelic acid], for which the “XRPD 2” value in data set [1] (1-Butanol) and in data set [1] (Dichloromethane) was “Amorphous” throughout.
As to `O=S(=O)(O)c1ccc2ccccc2c1` [Naphtalene-2-sulfonic acid], the “XRPD 2” value in data set [1] (1-Butanol) is given as “Nap1 + Nap0”; in data set [1] (Dichloromethane) it was “Amorphous”.
